System: ACLY (p-ACLY^S455)
Test: Western blot analysis of p-ACLY^S455
Type: cell-based, mouse
Conditions: overnight in vitro with anti-PD-L1; Wortmannin 20 nM, LY294002 20 μM; 2 μM, 10 μM
Method: FIGS. 4A-4H show ACLY is a critical effector molecule downstream of PD-1. […] ITK-SYK^+ cells were FACS-sorted from ITK-SYK^CD4-creERT2 mice on d5 after TAM and 12 h anti-PD-L1 or isotype control antibody treatment (i.p., 200 μg). P=paired two-sided Student's t-test. Data are presented as the mean±SD. […] Spleen-derived single-cell suspensions were FACS-sorted from ITK-SYK^CD4-creERT2 mice on d5 after TAM and cultured in vitro overnight with anti-PD-L1 or isotype control antibodies and the PI3K inhibitors (“iPI3K”) Wortmannin (20 nM), LY294002 (20 μM), or DMSO. […] Spleen-derived lymphocytes, FACS-sorted from ITK-SYK^CD4-creERT2 and ITK-SYK^CD4-creERT2; Pdcd1^−/− mice on d5 after TAM were incubated for three days in vitro. P=two-sided Student's t-test. Data are presented as the mean±SD. […] Protein lysates were generated after 48 h in vitro culture. RNP, ribonucleoprotein. […] P=two-sided Logrank-test. […] ITK-SYK^+ cells were FACS-sorted from ITK-SYK^CD4-creERT2 (“Pdcd1^+/+”) and ITK-SYK^CD4-creERT2; Pdcd1^−/− (“Pdcd1^−/−”) mice on d5 after TAM, fixed, and processed for anti-H3K27ac ChIP-seq analysis. ChIP-seq, chromatin immunoprecipitation sequencing; TSS, transcription start site. FIG. 4B, Representative data from three independent experiments with three biological replicates per group. FIG. 4C, Representative data from two independent experiments with two biological replicates. […]

O=c1cc(N2CCOCC2)oc2c(-c3ccccc3)cccc12 [LY294002, 2-(4-morpholinyl)-8-phenyl-4H-1-benzopyran-4-one]
p-ACLY^S455 phosphorylation induced by PD-1 inactivation: could be reversed

Reference: patent publication US20240316012A1, “METHODS FOR TREATING LYMPHOMA” (Northwestern University, priority 2023, published 2024)
